Measurements as given in PubChem BioAssay AID1508612.

Assay: passive permeability, PAMPA, ADME assay (AID 1508612)
Conditions: pH 7.4, 30.0 min, 50.0 µM

SMILES	Papp [×10⁻⁶ cm/s]
N=c1c2c(ccn1CCc1ccccc1)Oc1ccc3ccccc3c1C2c1ccccc1 (stereo unspecified)	553
CN(C)C(=O)c1nc(-c2ccc(S(C)(=O)=O)cc2)c2cnccn12	16.8
O=C(C1CCN(c2nc(-c3ccc(Br)cc3)cs2)CC1)N1CCNCC1	484
NCC(=O)Nc1ccc(Cl)cc1C(=O)c1ccc[nH]1	> 1000
Cc1cnc(N2CCC(C(N)=O)CC2)nc1-c1cccc(N(C)C)c1	666
CC(Nc1nc(N2CCN(S(C)(=O)=O)CC2)nc2ccccc12)c1ccccc1 (stereo unspecified)	> 1000
Cc1nc2sccn2c(=O)c1S(=O)(=O)Nc1ccc(N2CCN(S(C)(=O)=O)CC2)cc1	209
CC(C)(C)n1nc(-c2ccc(Cl)cc2)c2c(N)ncnc21	> 1000
O=C(NC1CCCCC1)N1Cc2[nH]cnc2C[C@H]1c1nc(-c2cccc([N+](=O)[O-])c2)no1	202
O=C(Cc1ccc(Cl)c(Cl)c1)Nc1ccc(S(=O)(=O)Nc2nncs2)cc1	1.5
Cc1ccccc1C(=O)Nc1nc2c(s1)CC(C(C)(C)C)CC2 (stereo unspecified)	257
C=C1C(=O)O[C@@H]2[C@H]3O[C@]3(C)CC/C=C(\C)CC[C@@H]12	> 1000
Cc1cnc(-c2ccccc2C(C)C)nc1NCC1CCN(c2cccnc2)C1 (stereo unspecified)	> 1000
CC(C=CC(=O)NO)=C[C@@H](C)C(=O)c1ccc(N(C)C)cc1	335
N#Cc1nc(-c2cccc3ccccc23)oc1NCc1ccccc1	22.9
Cc1noc(C)c1-c1ccc2ncnc(NCc3ccc4[nH]ccc4c3)c2c1	> 1000
O=C(Nc1nc(-c2ccccn2)cs1)c1cccc(-n2cnnn2)c1	290
Cc1ccccc1C(=O)NC1CCN(c2ccc3nnc(C4CC4)n3n2)CC1	97.8
Cc1ccc(-c2cc(C(=O)Nc3ccc(-c4noc(=O)[nH]4)cc3)c3ccccc3n2)cc1C	3
COc1cccc(CNc2ccc([S+](=O)([O-])Nc3cc4ccccc4s3)cc2)c1O	888
CCOc1cccc(C(=O)Nc2nc3c(s2)CC(C(C)(C)C)CC3)c1 (stereo unspecified)	< 1
Cc1cccc(CS(=O)(=O)c2ncc(Cl)c(C(=O)Nc3nc4ccc(F)cc4s3)n2)c1	261
Cc1ccc(S(=O)(=O)Nc2ccccc2C(=O)Nc2cnc(-c3ccccc3)cn2)cc1	> 1000
COc1ccc(-c2[nH]nc3ncc(-c4ccc(CO)cc4)nc23)cc1F	353
CNc1nc2c(s1)C(c1ccc(Cl)cc1)CC(=O)N2 (stereo unspecified)	308
O=c1c2c([nH]c3ccc(Br)cc13)CCCC2	62.4

SMILES	Papp [×10⁻⁶ cm/s]
COc1ccc(CN2CCNc3cc(Nc4ccccc4)ncc3C2)cn1	834
O=C(Nc1nc(-c2ccccc2)cs1)c1ccncc1NS(=O)(=O)c1ccc(F)cc1	748
COc1ccc(NC(=O)c2[nH]c(C)c(C(C)=O)c2C)cc1S(=O)(=O)N1CCCCC1	757
Nc1c(C(=O)Nc2ccc(Cl)cc2)sc2nc3c(cc12)N1CCC3CC1	697
CCN1CCCC1CNC(=O)c1cc(S(=O)(=O)CC)c(N)cc1OC (stereo unspecified)	< 1
NC(=O)c1cnc(N[C@@H]2CCCC[C@@H]2N)nc1Nc1cccc(-n2nccn2)c1	11.7
Cn1nnnc1Sc1ncnc2scc(-c3ccc(F)cc3)c12	911
O=C(Cc1ccc(-c2csc(Nc3ccc(F)cc3)n2)s1)N1CCOCC1	> 1000
Cc1nn(CC(=O)NCCCN2CCC(N3CCCCC3)CC2)c(=O)c2cc(-c3ccccc3)nn12	15.4
Cc1ccc(CC(=O)Nc2nc(-c3ccc4c(c3)CCN4C(=O)c3ccccc3C)c(C)s2)cc1C	222
Cn1c(=O)c2c(-c3ccc(Cl)cc3)n(CCc3ccccc3)cc2n(C)c1=O	> 1000
Cc1sc(NC(=O)Cc2ccc3c(c2)OCO3)nc1-c1ccc2c(c1)CCN2C(=O)c1ccccc1F	1.4
COc1ccccc1Nc1cnc2ccc(-c3ccc(OC)c(OC)c3)nn12	397
Cc1ccc2oc3c(c(=O)c2c1)C(c1cccc(O)c1)N(CCCN1CCOCC1)C3=O (stereo unspecified)	103
Cc1noc(C)c1-c1cc2c(cc(C)n2C)c(-c2cnn(C)c2)n1	549
O=C(c1ccccc1)N1CCN(c2nc(-c3ccc(Br)cc3)cs2)CC1	743
O=C(O)c1c(Sc2ccccc2)c2cc(Cl)ccc2n1Cc1ccc(Cl)cc1	709
CCc1ccc(NC(=O)c2[nH]c(C)c(C(C)=O)c2C)cc1[S+](=O)([O-])N1CCCCCC1	227
O=C(c1ccc2c(c1)ncn2-c1cccc(Cl)c1)N1CCCCC1	895
Cc1ccc2oc(NC3=NC(c4[nH]ncc4Cl)C4=C(CCCC4=O)N3)nc2c1 (stereo unspecified)	1000
CC1CCN(S(=O)(=O)c2ccc3c(c2)C(C)(C)C(=O)N3CC(=O)NCc2ccco2)CC1	584
Nc1ccc(CNc2ccc([S+](=O)([O-])Nc3nccs3)cc2)c(O)c1	< 1
CC(=O)Nc1nc(-c2ccc3c(c2)CCN3C(=O)c2ccccc2C)c(C)s1	> 1000
Nc1ncc(S(=O)(=O)N2CCOCC2)s1	15.5
NC(=O)N1CCCC(C(=O)N2CCCN(c3ccc(F)cc3)CC2)C1 (stereo unspecified)	111
COc1cc(Cl)c(C)cc1NC(=O)CSc1ncc(S(=O)(=O)c2ccc(C(C)(C)C)cc2)c(=O)[nH]1	16.2

SMILES	Papp [×10⁻⁶ cm/s]
O=C(Nc1nc(-c2ccccc2)cs1)c1ccncc1NS(=O)(=O)c1ccc(-c2ccccc2)cc1	< 1
Fc1ccc(Nc2ccnc(-c3ccncc3)n2)cc1F	371
Cc1ccc(OCCn2c(CCNC(=O)N3CCCCC3)nc3ccccc32)cc1	> 1000
COc1cccc(CNc2ccc(S(=O)(=O)Nc3ccc(N4CCNCC4)nc3)cc2)c1O	10.7
O=C(NCCCn1ccnc1)c1nc(-c2ccccc2)cc2[nH]ccc12	597
Cc1ccc(-c2cc(C(=O)Nc3ccc(S(=O)(=O)NCc4nccs4)cc3)c3ccccc3n2)cc1C	6
COc1cc(NC(=O)c2nc3ccccc3n(C)c2=O)cc(OC)c1OC	145
COC(=O)CNC(=O)c1nc(-c2ccc([S+](C)(=O)[O-])cc2)c2cnccn12	9.67
CCc1ccc(NC(=O)c2[nH]c(C)c(C(C)=O)c2C)cc1S(=O)(=O)Nc1ccc(C#N)cc1	48.1
CC(C)(C)c1ccc(C(=O)N2CC(=O)Nc3ccc(F)cc3C2c2ccc(F)cc2)cc1 (stereo unspecified)	> 1000
Cc1ccc(S(=O)(=O)c2cnc(SC(C)C(=O)Nc3ccccc3)[nH]c2=O)cc1 (stereo unspecified)	1.2
CN1CCN(c2ccc(Nc3nc(-c4ccncc4)nc4ccccc34)cc2F)CC1	> 1000
OCCn1cc(-c2cnc3nnn(Cc4ccc5ncccc5c4)c3n2)cn1	97.5
Cc1nc2ccc(C(=O)N3CCC4(CC3)CC(=O)c3c(cnn3C(C)C)C4)cc2[nH]1	16.5
COc1cccc(C(=O)Nc2ccc([S+](=O)([O-])Nc3nccs3)cc2)c1O	3.5
Clc1ccc(C2(c3ccc(-c4cn[nH]c4)cc3)CCNCC2)cc1	40.5
O=C(Nc1nc(-c2ccccn2)cs1)c1cccc(S(=O)(=O)N2CCOCC2)c1	657
O=C(O)Cn1c(C(=O)Nc2nc(-c3ccccc3Cl)cs2)cc2ccccc21	21.5
Cc1ccccc1C(=O)N1CCc2cc(-c3ccnc(NC(=O)Cc4ccccc4)n3)ccc21	> 1000
O=S(=O)(Nc1nccs1)c1ccc(NCc2cc(Cl)ccc2O)cc1	10.8
Fc1ccc(-c2nc(-c3ccncc3)nc3ccccc23)cc1F	> 1000
CN(C)CCOc1ccc(C(=C(CCCl)c2ccccc2)c2ccccc2)cc1	< 1
CSc1ccc(/C=C/c2nc3ccccc3n2S(=O)(=O)c2ccc(Br)cc2)cc1	> 1000
Oc1ccc(CNc2ccc(F)cc2F)c2cccnc12	178
